Results published in article PMC2819846 (Mutation research, 2008).

Tests used:
[1] = incubation with rat liver microsomes; cited from earlier work
[2] = system: DNA from Salmonella TA100; assay: Stable DNA adducts by 32P-postlabeling in DNA of treated TA100; type: cell-based; conditions: TA100, 10 µg/ml; DMSO 0.024 ± 0.000
Salmonella TA98 = assay: Salmonella plate-incorporation mutagenicity assay, strain TA98, with S9 mix; type: cell-based
strain TA100 = type: cell-based, Salmonella; conditions: TA100 liquid-suspension, 10 µg/ml
[3] = system: DNA from Salmonella TA100; assay: Abasic sites by aldehydic-site assay in DNA of treated TA100; type: cell-based; conditions: TA100, 10 µg/ml; DMSO 5.9 ± 0.33
Salmonella TA104 = assay: Salmonella plate-incorporation mutagenicity assay, strain TA104, with S9 mix; type: cell-based
Salmonella = conditions: cited from earlier work
Salmonella TA100 = assay: Salmonella plate-incorporation mutagenicity assay, strain TA100; type: cell-based

With `c1ccc2c(c1)ccc1ccc3sccc3c12` [P[3,4-b]T, Phenanthro[3,4,-b]thiophene] as the compound, how does the “Major relatively nonpolar metabolite(s), share of the total metabolites” value [1] read?
The value was 80–96%.

What about the “Stable adducts/10^8 nucleotides ± S.E” value [2] of the same compound?
Its value is 0.090 ± 0.007 adducts/10^8 nucleotides.

What about the Rev/plate (Salmonella TA98; TA98 +S9, Test 1, 2 µg/plate, zero-dose 33/40/39) of the same compound?
The Rev/plate was 81 rev/plate.

What about the Rev/plate (Salmonella TA98; TA98 +S9, Test 1, 5 µg/plate, zero-dose 33/40/39) of the same compound?
Its Rev/plate is 80 rev/plate.

And the Rev/plate (Salmonella TA98; TA98 +S9, Test 1, 10 µg/plate, zero-dose 33/40/39)?
The Rev/plate was 62 rev/plate.

And the Rev/plate (Salmonella TA98; TA98 +S9, Test 1, 20 µg/plate, zero-dose 33/40/39)?
The Rev/plate was 54 rev/plate.

And the Rev/plate (Salmonella TA98; TA98 +S9, Test 1, 40 µg/plate, zero-dose 33/40/39)?
The Rev/plate was 60 rev/plate.

And the Rev/plate (Salmonella TA98; TA98 +S9, Test 1, 80 µg/plate, zero-dose 33/40/39)?
Its Rev/plate is 55 rev/plate.

What about the Rev/plate (Salmonella TA98; TA98 +S9, Test 2, 0.05 µg/plate, zero-dose 43/41/30) of the same compound?
The Rev/plate was 30/40.

What about the Rev/plate (Salmonella TA98; TA98 +S9, Test 2, 0.1 µg/plate, zero-dose 43/41/30) of the same compound?
Its Rev/plate is 31/33.

And the Rev/plate (Salmonella TA98; TA98 +S9, Test 2, 0.25 µg/plate, zero-dose 43/41/30)?
The Rev/plate was 33/32.

And the Rev/plate (Salmonella TA98; TA98 +S9, Test 2, 0.5 µg/plate, zero-dose 43/41/30)?
Its Rev/plate is 58/34.

And the Rev/plate (Salmonella TA98; TA98 +S9, Test 3, 0.05 µg/plate, zero-dose 49/50/50)?
Its Rev/plate is 57/49.

What about the Rev/plate (Salmonella TA98; TA98 +S9, Test 3, 0.1 µg/plate, zero-dose 49/50/50) of the same compound?
Its Rev/plate is 50/51.

And the Rev/plate (Salmonella TA98; TA98 +S9, Test 3, 0.25 µg/plate, zero-dose 49/50/50)?
Its Rev/plate is 40/63.

And the Rev/plate (Salmonella TA98; TA98 +S9, Test 3, 0.5 µg/plate, zero-dose 49/50/50)?
The Rev/plate was 66/69.

What about the “Mutagenic potency, Revertants/µg ± S.E., TA98” value (Salmonella TA98; plate-incorporation, +S9) of the same compound?
Its value is 0.2 ± 0.2 rev/µg.

What about the “Fold increase in mutant frequency relative to DMSO-treated cells” value (strain TA100) of the same compound?
Its value is 5.3 fold.

And the “Rev/10^6 survivors” value (strain TA100; DMSO 0.8)?
The value was 4.3 Rev/10^6 survivors.

And the Percent survival (strain TA100; DMSO 100)?
The Percent survival was 24%.

And the “Abasic sites/10^5 nucleotides ± S.E” value [3]?
The value was 6.2 ± 0.26 sites/10^5 nucleotides.

And the Rev/plate (Salmonella TA104; TA104 +S9, Test 2, 0.5 µg/plate, zero-dose 276/260/270)?
Its Rev/plate is 335/385.

And the Rev/plate (Salmonella TA104; TA104 +S9, Test 2, 1 µg/plate, zero-dose 276/260/270)?
Its Rev/plate is 461/542.

And the Rev/plate (Salmonella TA104; TA104 +S9, Test 2, 2 µg/plate, zero-dose 276/260/270)?
Its Rev/plate is 569/553.

And the Rev/plate (Salmonella TA104; TA104 +S9, Test 2, 5 µg/plate, zero-dose 276/260/270)?
Its Rev/plate is 582/601.

What about the Rev/plate (Salmonella TA104; TA104 +S9, Test 3, 0.5 µg/plate, zero-dose 402/395/336) of the same compound?
Its Rev/plate is 507/473.

What about the Rev/plate (Salmonella TA104; TA104 +S9, Test 3, 1 µg/plate, zero-dose 402/395/336) of the same compound?
The Rev/plate was 571/559.

And the Rev/plate (Salmonella TA104; TA104 +S9, Test 3, 2 µg/plate, zero-dose 402/395/336)?
The Rev/plate was 604/630.

And the Rev/plate (Salmonella TA104; TA104 +S9, Test 3, 5 µg/plate, zero-dose 402/395/336)?
The Rev/plate was 535/679.

What about the “Mutagenic potency, Revertants/µg ± S.E., TA104” value (Salmonella TA104; plate-incorporation, +S9) of the same compound?
Its value is 210 ± 84 rev/µg.

What about the “Reported Mutagenicity” value (Salmonella) of the same compound?
Its value is “mutagenic”.

And the Rev/plate (Salmonella TA100; TA100 +S9, Test 2, 0.05 µg/plate, zero-dose 84/78/80)?
Its Rev/plate is 131/124.

What about the Rev/plate (Salmonella TA100; TA100 +S9, Test 2, 0.1 µg/plate, zero-dose 84/78/80) of the same compound?
Its Rev/plate is 120/128.

What about the Rev/plate (Salmonella TA100; TA100 +S9, Test 2, 0.25 µg/plate, zero-dose 84/78/80) of the same compound?
Its Rev/plate is 235/243.

What about the Rev/plate (Salmonella TA100; TA100 +S9, Test 2, 0.5 µg/plate, zero-dose 84/78/80) of the same compound?
Its Rev/plate is 389/354.

And the Rev/plate (Salmonella TA100; TA100 +S9, Test 3, 0.05 µg/plate, zero-dose 127/118/125)?
The Rev/plate was 151/163.

What about the Rev/plate (Salmonella TA100; TA100 +S9, Test 3, 0.1 µg/plate, zero-dose 127/118/125) of the same compound?
The Rev/plate was 187/201.

What about the Rev/plate (Salmonella TA100; TA100 +S9, Test 3, 0.25 µg/plate, zero-dose 127/118/125) of the same compound?
Its Rev/plate is 344/311.

What about the Rev/plate (Salmonella TA100; TA100 +S9, Test 3, 0.5 µg/plate, zero-dose 127/118/125) of the same compound?
The Rev/plate was 450/508.

And the Rev/plate (Salmonella TA100; TA100 +S9, Test 4, 0.05 µg/plate, zero-dose 112/140/115)?
The Rev/plate was 144/123.

And the Rev/plate (Salmonella TA100; TA100 +S9, Test 4, 0.1 µg/plate, zero-dose 112/140/115)?
The Rev/plate was 159/169.

And the Rev/plate (Salmonella TA100; TA100 +S9, Test 4, 0.25 µg/plate, zero-dose 112/140/115)?
Its Rev/plate is 216/227.

What about the Rev/plate (Salmonella TA100; TA100 +S9, Test 4, 0.5 µg/plate, zero-dose 112/140/115) of the same compound?
Its Rev/plate is 333/364.

What about the Rev/plate (Salmonella TA100; TA100 +S9, Test 5, 0.05 µg/plate, zero-dose 102/119/99) of the same compound?
Its Rev/plate is 136/140.

And the Rev/plate (Salmonella TA100; TA100 +S9, Test 5, 0.1 µg/plate, zero-dose 102/119/99)?
The Rev/plate was 175/132.

What about the Rev/plate (Salmonella TA100; TA100 +S9, Test 5, 0.25 µg/plate, zero-dose 102/119/99) of the same compound?
The Rev/plate was 237/166.

What about the Rev/plate (Salmonella TA100; TA100 +S9, Test 5, 0.5 µg/plate, zero-dose 102/119/99) of the same compound?
Its Rev/plate is 366/305.

And the “Mutagenic potency, Revertants/µg ± S.E., TA100” value (Salmonella TA100; plate-incorporation, +S9)?
The value was 550 ± 61 rev/µg.

What about the “Mutagenicity call TA100” value (Salmonella TA100; plate-incorporation, +S9) of the same compound?
The value was “(+) (Called mutagenic (+) based on showing reproducible, dose-related increases in rev/plate that reached or exceeded 2-fold relative to zero-dose controls)”.
